Laboratory results: patent US10052281B2, “Local administration-type pharmaceutical for improving dysphagia” (MEIJI SEIKA PHARMA CO., LTD., priority 2011, dated 2018)
“Also recorded” adds a separate entry of the source.

How the values were obtained:
[1] = tested on: guinea pig dysphagia model induced by repeated administrations of haloperidol; experiment: Swallowing reflex (water drinking frequency) in dysphagia model induced by repeated administrations of haloperidol; format: in vivo; settings: for water drinking frequency (dysphagia improving effect): oral (intragastric)
normal guinea pig = experiment: Swallowing reflex in normal guinea pig after local pharyngeal administration of substance P receptor antagonist; format: in vivo
Description: (§1) To 6 week-old female Hartley guinea pigs (330 to 390 g) habituated for 1 week after receipt, a physiological saline solution, or a haloperidol solution was injected subcutaneously in a dosage of 1 mg/kg approx. every 12 hours twice per day for 7 days. Thereafter, a guinea pig was fixed at extremities, and 500 μL of distilled water was injected over 5 sec through a device to a part just before the pharynx, and the total frequency of swallowing until 10 sec and 30 sec from the injection was measured based on a muscle movement in a pharyngeal site. Thereafter a physiological saline solution, or a haloperidol solution was injected again (1 mg/kg).
FK888 (10 μM, 50 μL/guinea pig), which is a substance P receptor antagonist, was administered locally with a spray device to a pharyngeal site of a guinea pig, and water drinking reflection frequency was measured in the same way as in Experiment 1.

Hartley guinea pigs = experiment: Swallowing reflex (water drinking frequency) after repeated administrations of haloperidol; format: in vivo, guinea pig; settings: haloperidol 1 mg/kg s.c. twice per day for 7 days, compared to physiological saline group
Description: as §1
The measurements were repeated totally 4 times at intervals of 1 min. […] Based on the result, the guinea pig was used as a dysphagia model induced by repeated administrations of haloperidol in the following experiments for evaluation of drug efficacy.

[2] = tested on: blood pressure increase by intravenous administration of angiotensin I in a normal rat; experiment: Blood pressure increase induced by intravenous angiotensin I; settings: oral, angiotensin I 300 ng/kg i.v. after 1 hour, SD male rats
Description: The respective dose of a captopril, or lisinopril aqueous solution was administered orally and the blood pressures were measured after 1 hour. Thereafter, angiotensin I was administered intravenously (300 ng/kg) to induce blood pressure increase and a change in the mean blood pressure was measured.

[3] = tested on: guinea pig dysphagia model induced by repeated administrations of haloperidol; experiment: Swallowing reflex (water drinking frequency) in dysphagia model induced by repeated administrations of haloperidol; format: in vivo; settings: local spray to pharyngeal mucosa, 100 μL of 50 μM aqueous solution, 2 hours after administration

For `CN(Cc1ccccc1)C(=O)[C@H](Cc1ccc2ccccc2c1)NC(=O)[C@@H]1C[C@@H](O)CN1C(=O)c1cn(C)c2ccccc12` [FK888], the “lower limit not influencing swallowing reflex” value ([1]; 100 μL local spray to pharyngeal mucosa) was 10 nM, the “increase in water drinking frequency by lisinopril (50 nM, 100 μL)” value ([1]; FK888 10 nM, 100 μL, local spray 15 min after lisinopril administration) was “almost completely suppressed” and the “swallowing reflex (water drinking reflection frequency)” value (normal guinea pig; FK888 10 μM, 50 μL/guinea pig, local spray to pharyngeal site) was “decrease in swallowing reflex”.
`C[C@H](CS)C(=O)N1CCC[C@H]1C(=O)O` [captopril] was tested, and the water drinking frequency ([1]; 100 μL of 50 μM aqueous solution sprayed to pharyngeal mucosa, 30 min after spray) was “significant increase; also recorded: exhibited an improving effect on dysphagia”, the water drinking frequency ([1]; 100 μL of 50 mM aqueous solution sprayed to pharyngeal mucosa, 30 min after spray) was “significant increase; also recorded: exhibited an improving effect on dysphagia” and the “water drinking frequency (dysphagia improving effect)” value ([1]; same dose as 100 μL of 50 μM aqueous solution, 30 min after administration) was “did not exert an influence”. For the same compound, the “water drinking frequency (dysphagia improving effect)” value ([1]; same dose as 100 μL of 50 mM aqueous solution, 30 min after administration) was “did not exert an influence” and the “decrease in swallowing reflex by FK888 administration” value (normal guinea pig; captopril aqueous solution sprayed to pharyngeal site 30 min before FK888) was “suppressed”.
For `O=C(CCCN1CCC(O)(c2ccc(Cl)cc2)CC1)c1ccc(F)cc1` [haloperidol], the water drinking frequency (Hartley guinea pigs) was “significantly decreased”.
With `NCCCC[C@H](N[C@@H](CCc1ccccc1)C(=O)O)C(=O)N1CCC[C@H]1C(=O)O` [lisinopril] the “vasopressor reaction by administration of angiotensin I (change in mean blood pressure)” value ([2]; 100 μL of 5 μM aqueous solution) was “had no influence”, the “vasopressor reaction by administration of angiotensin I (change in mean blood pressure)” value ([2]; 100 μL of 5 mM aqueous solution) was “suppressed a vasopressor reaction” and the “dose giving significant increase in water drinking frequency” value ([1]; 100 μL aqueous solution sprayed to pharyngeal mucosa) was at least 50 nM. For the same compound, the water drinking frequency ([1]; 100 μL of 0.5 nM to 500 μM aqueous solution (pH 7.0) sprayed to pharyngeal mucosa) was “dose-dependent increase”, the water drinking frequency ([1]; 100 μL of 50 nM aqueous solution sprayed to pharyngeal mucosa, 30 min after administration) was “increase in water drinking frequency” and the “water drinking frequency (dysphagia improving effect)” value ([1]; same dose as the local administration (100 μL of 50 mM), 2 hours after administration) was “exerted no influence; also recorded: no dysphagia improving effect was observed”. For the same compound, the “water drinking frequency (dysphagia improving effect)” value [3] was “exhibited an improving effect on dysphagia”.
